# Assay results published in patent US20060024350A1, “Biodegradable ocular devices, methods and systems” (priority 2004, published 2006).
# Entries after “also recorded” stand apart in the source; their conditions may differ.
# Legend:
# [1] = 72 hours after injection; cited from earlier work
# [2] = direct injection, posterior segment; cited from earlier work
# [3] = In vivo elution: HPLC detection of TA in tissues after 4-week subretinal implantation; design: species or system rabbit; details: four weeks after the implant, PCL/TA 60:40 subretinal
Compound,"triamcinolone present in the vitreous associated with other tissues including retina, pigment epithelium, sclera [1]",adverse or undesirable side effects observed [2],TA detection in anterior structures or blood (HPLC) [3],TA detection in posterior tissue samples (HPLC) [3]
C[C@]12C=CC(=O)C=C1CC[C@H]1[C@@H]3C[C@@H](O)[C@](O)(C(=O)CO)[C@@]3(C)C[C@H](O)[C@@]12F [triamcinolone],less than 1%,"elevations in intraocular pressure and the formation of, or acceleration of the development of cataracts",,
"CC1(C)O[C@@H]2C[C@H]3[C@@H]4CCC5=CC(=O)C=C[C@]5(C)[C@@]4(F)[C@@H](O)C[C@]3(C)[C@]2(C(=O)CO)O1 [TA, Triamcinolone acetonide]",,,not detected,confirmed the presence; also recorded: localized to the posterior eye segment
